# Results from US20230278972A1, “SUBSTITUTED HALOALKYL SULFONANILIDE HERBICIDES” (FMC Corporation, priority 2020, published 2023).
# Key:
# Format in all cases: in vivo
# [1] = tested on: barnyardgrass (Echinochloa crus-galli); assay: Test A preemergence, barnyardgrass; conditions: Preemergence; for Barnyardgrass plant response rating: 125 g ai/ha, visual injury on 0 to 100 scale (0 no effect, 100 complete control), approximately 10 days; for Plant response rating, Barnyardgrass: 0 to 100 scale (0 no effect, 100 complete control)
# Summary of the method: (§1)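 Formulated with a surfactant in a non-phytotoxic solvent, compounds are applied to loam–sand pots, either to bare soil immediately after seeding (preemergence) or to seedlings of 2 to 10 cm bearing one to two leaves (postemergence).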
# [2] = tested on: kochia (Bassia scoparia); assay: Test A preemergence, kochia; conditions: Preemergence; for Kochia plant response rating: 125 g ai/ha, visual injury on 0 to 100 scale (0 no effect, 100 complete control), approximately 10 days; for Plant response rating, Kochia: 0 to 100 scale (0 no effect, 100 complete control)
# Summary of the method: as §1
# [3] = tested on: ragweed (common ragweed, Ambrosia artemisiifolia); assay: Test A preemergence, ragweed; conditions: Preemergence; for Ragweed plant response rating: 125 g ai/ha, visual injury on 0 to 100 scale (0 no effect, 100 complete control), approximately 10 days; for Plant response rating, Ragweed: 0 to 100 scale (0 no effect, 100 complete control)
# Summary of the method: as §1
# [4] = tested on: Ryegrass, Italian (Italian ryegrass, Lolium multiflorum); assay: Test A preemergence, Ryegrass, Italian; conditions: Preemergence; for Ryegrass, Italian plant response rating: 125 g ai/ha, visual injury on 0 to 100 scale (0 no effect, 100 complete control), approximately 10 days; for Plant response rating, Ryegrass, Italian: 0 to 100 scale (0 no effect, 100 complete control)
# Summary of the method: as §1
# [5] = tested on: Foxtail, Giant (giant foxtail, Setaria faberi); assay: Test A preemergence, Foxtail, Giant; conditions: Preemergence; for Foxtail, Giant plant response rating: 125 g ai/ha, visual injury on 0 to 100 scale (0 no effect, 100 complete control), approximately 10 days; for Plant response rating, Foxtail, Giant: 0 to 100 scale (0 no effect, 100 complete control)
# Summary of the method: as §1
# [6] = tested on: pigweed (Amaranthus retroflexus); assay: Test A preemergence, pigweed; conditions: for Pigweed plant response rating: 125 g ai/ha, visual injury on 0 to 100 scale (0 no effect, 100 complete control), approximately 10 days; for Plant response rating, Pigweed: 0 to 100 scale (0 no effect, 100 complete control)
# Summary of the method: (§2)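 Seeds are sown in loam mixed with sand and sprayed on the soil surface right after planting for the preemergence test. Postemergence pots are sprayed once seedlings reach 2 to 10 cm at the one- to two-leaf stage. The same surfactant-containing, non-phytotoxic solvent formulation serves both.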
# [7] = tested on: barnyardgrass (Echinochloa crus-galli); assay: Test A postemergence, barnyardgrass; conditions: Postemergence, 0 to 100 scale (0 no effect, 100 complete control)
# Summary of the method: as §2
# [8] = tested on: kochia (Bassia scoparia); assay: Test A postemergence, kochia; conditions: Postemergence
# Summary of the method: as §1
# [9] = tested on: ragweed (common ragweed, Ambrosia artemisiifolia); assay: Test A postemergence, ragweed; conditions: Postemergence
# Summary of the method: as §1
# [10] = tested on: Ryegrass, Italian (Italian ryegrass, Lolium multiflorum); assay: Test A postemergence, Ryegrass, Italian; conditions: Postemergence
# Summary of the method: as §1
# [11] = tested on: Foxtail, Giant (giant foxtail, Setaria faberi); assay: Test A postemergence, Foxtail, Giant; conditions: Postemergence
# Summary of the method: as §1
# [12] = tested on: pigweed (Amaranthus retroflexus); assay: Test A postemergence, pigweed; conditions: Postemergence
# Summary of the method: as §1
# [13] = tested on: wheat (Triticum aestivum); assay: Test A postemergence, wheat; conditions: Postemergence
# Summary of the method: as §2
# [14] = tested on: corn (Zea mays); assay: Test A postemergence, corn; conditions: Postemergence
# Summary of the method: as §1
# [15] = tested on: blackgrass (Alopecurus myosuroides); assay: Test A postemergence, blackgrass; conditions: Postemergence, 0 to 100 scale (0 no effect, 100 complete control)
# Summary of the method: as §1
# [16] = tested on: galium (catchweed bedstraw, Galium aparine); assay: Test A postemergence, galium; conditions: Postemergence
# Summary of the method: as §2
# [17] = 125 g ai/ha, visual injury approx. 10 days
# [18] = 500 g ai/ha, visual injury vs untreated controls after approx. 10 days
# [19] = 125 g ai/ha, visual injury approx. 10 days, 0 to 100 scale (0 no effect, 100 complete control)
# [20] = 500 g ai/ha, visual injury vs untreated controls after approx. 10 days, 0 to 100 scale (0 no effect, 100 complete control)
# [21] = 31 g ai/ha, visual injury, approx. 10 days
# [22] = 31 g ai/ha, visual injury on 0 to 100 scale (0 no effect, 100 complete control), approx. 10 days
Compound,Barnyardgrass plant response rating [1],Kochia plant response rating [2],Ragweed plant response rating [3],"Ryegrass, Italian plant response rating [4]","Foxtail, Giant plant response rating [5]",Pigweed plant response rating [6],"Plant response rating, Barnyardgrass [7, 17]","Plant response rating, Kochia [8, 19]","Plant response rating, Ragweed [9, 19]","Plant response rating, Ryegrass, Italian [10, 19]","Plant response rating, Foxtail, Giant [11, 19]","Plant response rating, Pigweed [12, 19]","Plant response rating, Wheat [13, 19]","Plant response rating, Corn [14, 19]","Plant response rating, Blackgrass [15, 17]","Plant response rating, Galium [16, 19]","Plant response rating, Barnyardgrass [1, 21]","Plant response rating, Kochia [2, 21]","Plant response rating, Ragweed [3, 21]","Plant response rating, Ryegrass, Italian [4, 21]",other results
COC1CCN(C(=O)c2cc(NS(=O)(=O)C(F)(F)F)c(C)c(F)c2C)CC1 [Compound 110],40,80,80,20,90,80,20,10,90,0,0,70,20,0,0,70,,,,,"Plant response rating, Barnyardgrass ([1]; 500 g ai/ha): 90; Plant response rating, Kochia ([2]; 500 g ai/ha): 100; Plant response rating, Ragweed ([3]; 500 g ai/ha): 90; Plant response rating, Ryegrass, Italian ([4]; 500 g ai/ha): 90; Plant response rating, Foxtail, Giant ([5]; 500 g ai/ha): 100; Plant response rating, Pigweed ([6]; 500 g ai/ha): 100; Barnyardgrass plant response rating [7, 18]: 80; Kochia plant response rating [8, 20]: 50; Ragweed plant response rating [9, 20]: 90; Ryegrass, Italian plant response rating [10, 20]: 50; Foxtail, Giant plant response rating [11, 20]: 90; Pigweed plant response rating [12, 20]: 100; Wheat plant response rating [13, 20]: 60; Corn plant response rating [14, 20]: 10; Blackgrass plant response rating [15, 18]: 0; Galium plant response rating [16, 20]: 80"
COC1CN(C(=O)c2cc(NS(=O)(=O)C(F)(F)F)c(C)cc2C)C1 [Compound 111],30,50,40,70,60,90,80,60,90,30,60,90,50,40,0,70,10,0,10,0,"Plant response rating, Foxtail, Giant [5, 21]: 0; Plant response rating, Pigweed [6, 21]: 10; Plant response rating, Barnyardgrass ([7]; 31 g ai/ha): 40; Plant response rating, Kochia [8, 22]: 20; Plant response rating, Ragweed [9, 22]: 70; Plant response rating, Ryegrass, Italian [10, 22]: 30; Plant response rating, Foxtail, Giant [11, 22]: 0; Plant response rating, Pigweed [12, 22]: 20; Plant response rating, Wheat [13, 22]: 0; Plant response rating, Corn [14, 22]: 0; Plant response rating, Blackgrass ([15]; 31 g ai/ha): 0; Plant response rating, Galium [16, 22]: 50"
Cc1cc(C)c(C(=O)N2COC(C)(C)C2)cc1NS(=O)(=O)C(F)(F)F [Compound 112],30,60,90,30,50,100,70,30,90,60,50,60,40,20,30,90,20,10,30,0,"Plant response rating, Pigweed [6, 21]: 50; Plant response rating, Barnyardgrass ([7]; 31 g ai/ha): 40; Plant response rating, Kochia [8, 22]: 20; Plant response rating, Ragweed [9, 22]: 80; Plant response rating, Ryegrass, Italian [10, 22]: 0; Plant response rating, Foxtail, Giant [11, 22]: 10; Plant response rating, Pigweed [12, 22]: 50; Plant response rating, Wheat [13, 22]: 0; Plant response rating, Corn [14, 22]: 0; Plant response rating, Blackgrass ([15]; 31 g ai/ha): 0; Plant response rating, Galium [16, 22]: 90"
COC1CCN(C(=O)c2cc(NS(=O)(=O)C(F)(F)F)c(C)cc2C)C1 (stereo not drawn) [Compound 113],20,50,60,80,60,90,80,50,90,50,30,90,20,0,0,80,0,10,0,0,"Plant response rating, Foxtail, Giant [5, 21]: 10; Plant response rating, Pigweed [6, 21]: 30; Plant response rating, Barnyardgrass ([7]; 31 g ai/ha): 20; Plant response rating, Kochia [8, 22]: 10; Plant response rating, Ragweed [9, 22]: 80; Plant response rating, Ryegrass, Italian [10, 22]: 20; Plant response rating, Foxtail, Giant [11, 22]: 0; Plant response rating, Pigweed [12, 22]: 80; Plant response rating, Wheat [13, 22]: 0; Plant response rating, Corn [14, 22]: 0; Plant response rating, Blackgrass ([15]; 31 g ai/ha): 0; Plant response rating, Galium [16, 22]: 70"
COC(=O)N(c1cc(C(=O)N2CCCC(OC)C2)c(C)cc1C)S(=O)(=O)C(F)(F)F (stereo not drawn) [Compound 115],100,40,20,90,100,90,50,30,50,40,30,60,60,0,0,90,50,0,0,70,"Plant response rating, Foxtail, Giant [5, 21]: 100; Plant response rating, Pigweed [6, 21]: 100; Plant response rating, Barnyardgrass ([7]; 31 g ai/ha): 10; Plant response rating, Kochia [8, 22]: 20; Plant response rating, Ragweed [9, 22]: 30; Plant response rating, Ryegrass, Italian [10, 22]: 0; Plant response rating, Foxtail, Giant [11, 22]: 0; Plant response rating, Pigweed [12, 22]: 30; Plant response rating, Wheat [13, 22]: 40; Plant response rating, Corn [14, 22]: 0; Plant response rating, Blackgrass ([15]; 31 g ai/ha): 0; Plant response rating, Galium [16, 22]: 80"
